# Results from US20100298285A1, “Biclycloheteroaryl Compounds as P2x7 Modulators and Uses Thereof” (priority 2006, published 2010).
# Test system: IL-1β release, THP-1 cells
# Test: IL-1β release assay in differentiated THP-1 cells stimulated with BzATP (Example 9)
# Type: cell-based
# Conditions: Homo sapiens; for inhibition at 0.3 µM: 0.3 μM compound ("+" symbols); for inhibition at 0.3 µM / inhibition at 0.1 µM: differentiated THP-1 cells, 250 uM BzATP, read-out: IL-1β% Inhib. @ 0.3 or 0.1 μM; for IC50: THP-1 cells, BzATP 250 uM, four parameter logistic fit; for inhibition at 0.1 µM: 0.1 μM compound ("*" symbols)
# Protocol: THP-1 cells (ATCC Cat # 285-IF-100) are plated in 96 well plates at a concentration of 200,000 cells per well and allowed to differentiate in RPMI-1640 media (ATCC Cat # 30-2001) containing 10% FBS, 100 IU/mL penicillin, 100 ug/mL streptomycin, 100 ng/mL LPS and 100 ng/mL IFN-γ for 16 hours. Following differentiation, the cells are treated for an additional 2 hours in RPMI-1640 media containing 100 IU/mL penicillin, 100 ug/mL streptomycin and fresh LPS at 100 ng/mL. The cells are then pretreated for 30 minutes with the compound of interest at the appropriate concentration in RPMI media containing 100 IU/mL penicillin, 100 ug/mL streptomycin. Following the pretreatment 2′,3′-O-(4-benzoylbenzoyl)-adenosine 5′-triphosphate (Sigma Aldrich Cat # B6396) is added to a final concentration of 250 uM and the cells are incubated for an additional 45 minutes. 30 uL of cell supernatant is then collected and IL-1β levels determined via ELISA (R&D systems Cat. # HSLB50) according to manufacturer's recommendations using the Tecan Safire plate reader. Background adjusted IL-1β levels of drug treated and non-treated cells are used to calculate the percent inhibition.
# The following compounds have been or can be prepared according to the synthetic methods described above. For the purpose of Table 1 below, activity of each compound, which can be determined using the IL-1β assay method described in Example 9, is expressed as follows: […]
# The compounds set forth in Table 1 were tested for activity in a cellular model as described herein. Specifically, cells were pretreated with differing amounts of the compound under test and released IL-1β determined as in Example 9, above. Measurements were made and IC50 values, presented in Table 2, below, were determined by fitting the data to a four parameter logistic equation using GraphPad Prism software (GraphPad Software, Inc). The equation may be expressed by the following formula:
# Y=Bottom+(Top−Bottom)/(1+10̂((Log EC50−X)*HillSlope))
# Where X is the logarithm of concentration, Y is the response and Y starts at Bottom and goes to Top with a sigmoid shape.
IC50,SMILES,inhibition at 0.3 µM,inhibition at 0.1 µM
–,COc1ccc(C(=O)N2CCc3c(ccc(Cl)c3NC(=O)Cc3cccc(C(F)(F)F)c3F)C2)cc1OC [Compound 3193],0 to 25%,–
65.4 nM,CCCCS(=O)(=O)N1CCc2c(ccc(C)c2NC(=O)Cc2ccc(C(F)(F)F)c(F)c2)C1 [Compound 3448],–,–
256 nM,"CC(c1ccc(F)cc1)N1CCc2c(cccc2NC(=O)Cc2ccc(C(F)(F)F)c(F)c2)C1 (stereo not shown) [Compound 3059, N-{2-[1-(4-Fluoro-phenyl)-ethyl]-1,2,3,4-tetrahydro-isoquinolin-5-yl}-2-(3-fluoro-4-trifluoromethyl-phenyl)-acetamide]",51 to 75%,–
175 nM,CC(=O)N1CCc2c(ccc(C)c2NC(=O)Cc2ccc(C(F)(F)F)c(F)c2)C1 [Compound 3201],–,–
–,N#Cc1cccc(S(=O)(=O)N2CCc3c(ccc(Cl)c3NC(=O)Cc3ccc(C(F)(F)F)cc3)C2)c1 [Compound 3028],–,0 to 25%
71.1 nM,CC(C)S(=O)(=O)N1CCc2c(ccc(Cl)c2NC(=O)Cc2ccc(C(F)(F)F)c(F)c2)C1 [Compound 3304],–,–
–,COCC(=O)N1CCc2c(ccc(Cl)c2NC(=O)Cc2cccc(C(F)(F)F)c2F)C1 [Compound 3145],51 to 75%,–
150 nM,O=C(Cc1ccc(C(F)(F)F)c(F)c1)Nc1cccc2c1CCN(CC(O)C(O)(c1ccccc1)C(F)(F)F)C2 (stereo not shown) [Compound 3067],≥ 76%,–
–,Cc1nn(-c2ccccc2)nc1C(=O)N1CCc2c(ccc(Cl)c2NC(=O)Cc2ccc(C(F)(F)F)c(F)c2)C1 [Compound 3108],0 to 25%,–
–,O=C(Cc1ccc(C(F)(F)F)c(F)c1)Nc1c(Cl)ccc2c1CCN(C(=O)c1c(Cl)cccc1Cl)C2 [Compound 3068],0 to 25%,–
–,O=C(Cc1cccc(C(F)(F)F)c1F)Nc1c(Cl)ccc2c1CCN(C(=O)c1ccc(C(F)(F)F)nc1)C2 [Compound 3196],0 to 25%,–
–,O=C(Cc1cccc(C(F)(F)F)c1F)Nc1c(Cl)ccc2c1CCN(C(=O)c1ccc(Cl)cc1)C2 [Compound 3139],0 to 25%,–
–,COc1ccc(C(=O)N2CCc3c(ccc(Cl)c3NC(=O)Cc3ccc(C(F)(F)F)c(F)c3)C2)cc1OC [Compound 3129],0 to 25%,–
69.8 nM,Cc1ccc2c(c1NC(=O)Cc1ccc(C(F)(F)F)c(F)c1)CCN(C(=O)C1(O)CC1)C2 [Compound 3468],–,–
–,O=C(Cc1ccc(C(F)(F)F)cc1)Nc1c(Cl)ccc2c1CCN(S(=O)(=O)c1ccccc1C(F)(F)F)C2 [Compound 3031],–,0 to 25%
–,O=C(Cc1ccc(C(F)(F)F)cc1)Nc1c(Cl)ccc2c1CCN(S(=O)(=O)c1cccc(Cl)c1F)C2 [Compound 3019],–,0 to 25%
107 nM,Cc1ccc2c(c1NC(=O)Cc1ccc(C(F)(F)F)c(F)c1)CCN(S(=O)(=O)CC(F)(F)F)C2 [Compound 3406],–,–
–,CCCc1ccc(C(=O)N2CCc3c(ccc(Cl)c3NC(=O)Cc3ccc(C(F)(F)F)c(F)c3)C2)cc1 [Compound 3084],0 to 25%,–
–,CN(C)c1ccc(C(=O)N2CCc3c(ccc(Cl)c3NC(=O)Cc3cccc(C(F)(F)F)c3F)C2)cc1 [Compound 3159],0 to 25%,–
–,O=C(Cc1ccc(C(F)(F)F)c(F)c1)Nc1c(Cl)ccc2c1CCN(C(=O)c1cccc3ccccc13)C2 [Compound 3121],0 to 25%,–
–,O=C(Cc1ccc(C(F)(F)F)cc1)Nc1c(Cl)ccc2c1CCN(S(=O)(=O)c1ccc(Cl)cc1)C2 [Compound 3013],–,0 to 25%
41.3 nM,Cc1ccc2c(c1NC(=O)Cc1ccc(C(F)(F)F)c(F)c1)CCN(S(=O)(=O)c1ccccc1F)C2 [Compound 3460],–,–
–,O=C(Cc1ccc(C(F)(F)F)c(F)c1)Nc1c(Cl)ccc2c1CCN(C(=O)COc1ccc(Cl)cc1)C2 [Compound 3104],0 to 25%,–
–,Cc1ccc(C(=O)N2CCc3c(ccc(Cl)c3NC(=O)Cc3ccc(C(F)(F)F)c(F)c3)C2)cc1 [Compound 3119],26 to 50%,–
25.5 nM,Cc1ccc2c(c1NC(=O)Cc1ccc(C(F)(F)F)c(F)c1)CCN(C(=O)C(C)(C)C)C2 [Compound 3220],–,–
–,COc1ccc(C(=O)N2CCc3c(ccc(Cl)c3NC(=O)Cc3ccc(C(F)(F)F)c(F)c3)C2)cc1 [Compound 3076],0 to 25%,–

IC50,SMILES,inhibition at 0.3 µM,inhibition at 0.1 µM
–,CC(=O)Nc1ccc(C(=O)N2CCc3c(ccc(Cl)c3NC(=O)Cc3ccc(C(F)(F)F)c(F)c3)C2)cc1 [Compound 3128],0 to 25%,–
–,Cc1cccc(C(=O)N2CCc3c(ccc(Cl)c3NC(=O)Cc3ccc(C(F)(F)F)c(F)c3)C2)c1 [Compound 3074],26 to 50%,–
495 nM,O=C(Cc1ccc(C(F)(F)F)c(F)c1)Nc1cccc2c1CCN(C(=O)C1CC1)C2 [Compound 3041],0 to 25%,–
338 nM,"CCC(O)CN1CCc2c(cccc2NC(=O)Cc2ccc(C(F)(F)F)c(F)c2)C1 (stereo not shown) [Compound 3058, 2-(3-Fluoro-4-trifluoromethyl-phenyl)-N-[2-(2-hydroxy-butyl)-1,2,3,4-tetrahydro-isoquinolin-5-yl]-acetamide]",26 to 50%,–
–,O=C(Cc1ccc(C(F)(F)F)cc1)Nc1c(Cl)ccc2c1CCN(S(=O)(=O)c1cc(F)ccc1F)C2 [Compound 3008],–,0 to 25%
219 nM,O=C(Cc1ccc(C(F)(F)F)c(F)c1)Nc1cccc2c1CCN(CC(O)c1ccc(Cl)cc1)C2 (stereo not shown) [Compound 3066],51 to 75%,–
203 nM,Cc1ccc2c(c1NC(=O)Cc1ccc(C(F)(F)F)c(F)c1)CCN(C(=O)C(C)(C)CO)C2 [Compound 3472],–,–
–,O=C(Cc1cccc(C(F)(F)F)c1F)Nc1c(Cl)ccc2c1CCN(C(=O)COc1ccccc1)C2 [Compound 3152],0 to 25%,–
684 nM,C[C@H](N)C(=O)N1CCc2c(cccc2NC(=O)Cc2ccc(C(F)(F)F)c(F)c2)C1 [Compound 3054],0 to 25%,–
–,Cc1ccccc1S(=O)(=O)N1CCc2c(ccc(Cl)c2NC(=O)Cc2ccc(C(F)(F)F)cc2)C1 [Compound 3023],–,0 to 25%
–,Cc1cc(C(=O)N2CCc3c(ccc(Cl)c3NC(=O)Cc3ccc(C(F)(F)F)c(F)c3)C2)no1 [Compound 3116],0 to 25%,–
–,O=C(Cc1ccc(C(F)(F)F)cc1)Nc1c(Cl)ccc2c1CCN(S(=O)(=O)c1cc(Cl)ccc1F)C2 [Compound 3018],–,0 to 25%
60.7 nM,O=C(Cc1ccc(C(F)(F)F)c(F)c1)Nc1c(Cl)ccc2c1CCN(S(=O)(=O)c1ccccc1Cl)C2 [Compound 3287],–,–
76.7 nM,Cc1ccc2c(c1NC(=O)Cc1cccc(C(F)(F)F)c1F)CCN(C(=O)[C@H]1CCCN1)C2 [Compound 3062],≥ 76%,–
–,O=C(Cc1ccc(C(F)(F)F)c(F)c1)Nc1c(Cl)ccc2c1CCN(C(=O)c1cc(F)ccc1F)C2 [Compound 3113],0 to 25%,–
–,Cc1cc(F)ccc1S(=O)(=O)N1CCc2c(ccc(Cl)c2NC(=O)Cc2ccc(C(F)(F)F)cc2)C1 [Compound 3010],–,0 to 25%
–,O=C(Cc1cccc(C(F)(F)F)c1F)Nc1c(Cl)ccc2c1CCN(C(=O)C1CCC1)C2 [Compound 3164],0 to 25%,–
73 nM,O=C(Cc1ccc(C(F)(F)F)c(F)c1)Nc1cccc2c1CCN(C(=O)[C@H]1CCCN1)C2 [Compound 3051],≥ 76%,–
–,O=C(Cc1cccc(C(F)(F)F)c1F)Nc1c(Cl)ccc2c1CCN(C(=O)CC1CCCC1)C2 [Compound 3166],0 to 25%,–
–,O=C(Cc1cccc(C(F)(F)F)c1F)Nc1c(Cl)ccc2c1CCN(C(=O)c1cc(F)ccc1F)C2 [Compound 3177],0 to 25%,–
–,O=C(Cc1cccc(C(F)(F)F)c1F)Nc1c(Cl)ccc2c1CCN(C(=O)C1COc3ccccc3O1)C2 (stereo not shown) [Compound 3174],0 to 25%,–
84 nM,Cc1ccc(C)c(S(=O)(=O)N2CCc3c(ccc(Cl)c3NC(=O)Cc3ccc(C(F)(F)F)cc3)C2)c1 [Compound 3025],≥ 76%,–
–,O=C(Cc1cccc(C(F)(F)F)c1F)Nc1c(Cl)ccc2c1CCN(C(=O)c1ccc3ccccc3n1)C2 [Compound 3189],0 to 25%,–
56.3 nM,"N[C@@H](Cc1ccccc1)C(=O)N1CCc2c(cccc2NC(=O)Cc2ccc(C(F)(F)F)c(F)c2)C1 [Compound 3056, N-[2-((S)-2-Amino-3-phenyl-propionyl)-1,2,3,4-tetrahydro-isoquinolin-5-yl]-2-(3-fluoro-4-trifluoromethyl-phenyl)-acetamide]",≥ 76%,–
–,CCC(C(=O)N1CCc2c(ccc(Cl)c2NC(=O)Cc2cccc(C(F)(F)F)c2F)C1)c1ccccc1 (stereo not shown) [Compound 3157],0 to 25%,–
